Source: US20030186890A1, “Amphipathic linear peptides and formulations containing said peptides” (SYNT:EM S.A., priority 2000, published 2003)
Values joined by “and” are separate entries in the source; they are usually repeats but may differ in a detail not shown here. Equal entries are not always repeated.

How the values were obtained:
[1] = mouse, in vivo
Source text: This is a rapid and sensitive method to evaluate the penetration of various compounds in the central nervous system. Young mice (25-30 g, Iffa-Credo; l'Arbresle, France) were anaesthetised. After exposure of the common carotid, the right external carotid artery was tied at the bifurcation with the internal carotid and the common carotid was tied between the heart and the catheter implantation site (polyethylene catheter, ID: 0.76). The catheter previously filled with a heparin solution (100 units/ml) was inserted into the common carotid. The mice were infused with the infusion buffer (128 mM NaCl, 24 mM NaHCO3, 4.2 mM KCl, 2.4 mM NaH2PO4, 1.5 mM CaCl2, 0.9 mM MgSO4 and 9 mM D-glucose). The buffer was filtered and then bubbled with a mixture containing 95% O2/5% CO2 to maintain the pH close to 7.4 and supply the brain with oxygen during the infusion.
In each product, the doxorubicin was radiolabelled with carbon 14 (specific activity: 9.4 μCi/mg, Amersham, France) . The products were infused at a concentration of 0.33 μCi/ml or 0.035 mg/mouse.
Just before the start of infusion, the heart was stopped by ventricular section to prevent infusate reflux during infusion. The right hemisphere was then infused at a rate of 10 ml/min for 60 seconds, after which the mouse was decapitated. […]

K562 cells = assay: Cell penetration of NBD-labelled peptides by flow cytometry (FACS); assay type: cell-based; conditions: for penetration (mean fluorescent intensity): NBD-labelled peptide 1 μM, 37° C.; for penetration relative to that of SynB1: at 60 min; for penetration compared with the reference peptide (in words): irrespective of the time interval
Method: Cell penetration of the peptides was studied by flow cytometry. The K562 cells were cultured in RPMI medium with 10% foetal calf serum. The cells were diluted to 0.3×10^6 cells per ml 24 hours before the experiment. The cell penetration was measured by flow cytometry using a FACScan (Becton Dickinson, USA). The peptides labelled with NBD (final concentration 1 μM) were incubated with the K562 cells (5×10^5 cells per ml) in Optimem medium at 37° C. for variable periods (the final volume was 0.5 ml). After incubation, the cells were washed twice and then resuspended in 0.5 ml of cold PBS. The penetration was then analysed by FACS. The fluorophors were excited at 488 nm and the fluorescence measured at 525 nm. A histogram of the fluorescent intensity (for 1×10^4 cells) was obtained and the mean distribution considered to be representative of the quantity of peptide associated with the cells.

| Substance | increase of passage into the brain (influx constant Kin) versus doxorubicin alone [1] [times] | penetration (mean fluorescent intensity) (K562 cells; Time 0 min) | penetration (mean fluorescent intensity) (K562 cells; Time 5 min) | penetration (mean fluorescent intensity) (K562 cells; Time 10 min) | penetration (mean fluorescent intensity) (K562 cells; Time 30 min) | penetration (mean fluorescent intensity) (K562 cells; Time 60 min) | penetration relative to that of SynB1 (K562 cells) [times] | penetration compared with the reference peptide (in words) (K562 cells) |
| --- | --- | --- | --- | --- | --- | --- | --- | --- |
| Doxo-(RGGRLSYSCitCitCitFSTSTGR) [Doxo-SynB1/3Cit] | 20 |  |  |  |  |  |  |  |
| R G G R L A Y L R R R W A V L V G R (RGGRLAYLRRRWAVLVGR) [SM3979] |  | 4 | 75 | 95 | 100 | 114 | 9 | penetrate much more effectively |
| R G G R L S Y S R R R F S T S T G R (RGGRLSYSRRRFSTSTGR) [SynB1, reference compound] |  | 4 | 7 | 7 | 8 | 12 |  |  |
| R G G R L V Y V R R R W V V V V G R (RGGRLVYVRRRWVVVVGR) [SM3980] |  | 4 | 34 | 42 | 54 | 62 | 5 | penetrate much more effectively |
| R L R W R L R L R F (RLRWRLRLRF) [SM4292] |  | 4.5 | 140 | 140 | 141 | 146 |  |  |
| R L R W R L R Y R F (RLRWRLRYRF) [SM4291] |  | 4.5 | 91 | 99 | 107 | 118 |  |  |
| R R L S Y S R R R F (RRLSYSRRRF) [SynB3, reference compound] |  | 4 and 4.5 | 9.5 and 12 | 10 and 13 | 12 and 15 | 16 and 23 |  |  |
| R R L W L L R R R F (RRLWLLRRRF) [SM4288] |  | 4 | 33 | 38 | 53 | 61 |  |  |
| R R L W R L L R R F (RRLWRLLRRF) [SM4290] |  | 4 | 147 | 168 | 366 | 371 |  |  |
| R R L W R L Y R R F (RRLWRLYRRF) [SM4289] |  | 4 | 63 | 80 | 107 | 135 |  |  |
| R R L W Y L R R R F (RRLWYLRRRF) [SM4287] |  | 4 | 29 | 34 | 50 | 60 |  |  |
| RKLWYLRKRF [SM4293] |  | 4.5 | 20 | 23 | 29 | 31 |  |  |
